Laboratory results taken from patent US8637507B2, “Bicyclic compounds as inhibitors of diacylglycerol acyltransferase” (Merck Sharp & Dohme Corp., priority 2009, dated 2014).

Biological target: human DGAT1 enzyme (Homo sapiens (Human), UniProt O75907)
Conditions: read-out: hDGAT1 IC50; human DGAT1 expressed in Sf9 insect cells, microsomes; 2 hours at room temperature
Description: The in vitro assay to identify DGAT1 inhibitors uses human DGAT1 enzyme expressed in Sf9 insect cells prepared as microsomes. The reaction was initiated by the addition of the combined substrates 1,2-dioleoyl-sn-glycerol and [^14C]-palmitoyl-CoA and incubated with test compounds and microsomal membranes for 2 hours at room temperature. The assay was stopped by adding 0.5 mg wheat germ agglutinin beads in assay buffer with 1% Brij-35 and 1% 3-cholamidopropyldimethyl-ammonio-1-propane sulfonate. Plates were sealed with TopSeal and incubated for 18 hours to allow the radioactive triglyceride product to come into proximity with the bead. Plates were read on a TopCount instrument.
Percent inhibition was calculated as the percent of (test compound inhibition minus non-specific binding) relative to (total binding minus non-specific binding). IC50 values were determined by curve fitting the data to a Sigmoidal dose-response in GraphPad Prism utilizing the following equation: Y=A+(B−A)/(1+10^((Log IC50−X))), where A and B are the bottom and top of the curve (highest and lowest inhibition), respectively, and X is the logarithm of concentration.

Chain of human DGAT1 enzyme (O75907 whole entry): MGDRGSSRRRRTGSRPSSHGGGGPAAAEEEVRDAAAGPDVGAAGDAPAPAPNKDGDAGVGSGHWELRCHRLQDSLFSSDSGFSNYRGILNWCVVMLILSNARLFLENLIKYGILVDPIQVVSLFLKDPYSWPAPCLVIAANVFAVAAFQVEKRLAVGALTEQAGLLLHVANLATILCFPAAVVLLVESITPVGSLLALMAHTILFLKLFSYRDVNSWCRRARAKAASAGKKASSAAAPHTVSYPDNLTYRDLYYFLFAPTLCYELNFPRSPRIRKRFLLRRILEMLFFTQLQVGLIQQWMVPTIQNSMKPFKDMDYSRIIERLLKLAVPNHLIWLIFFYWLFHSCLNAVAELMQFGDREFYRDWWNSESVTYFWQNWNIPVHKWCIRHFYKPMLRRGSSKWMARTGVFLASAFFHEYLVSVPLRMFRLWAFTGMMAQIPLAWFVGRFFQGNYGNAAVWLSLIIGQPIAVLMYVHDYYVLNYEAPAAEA

## Cc1cc(C(=O)Nc2ccccc2)c2ccc(-c3ccc(OCC(C)(C)C(=O)O)nc3)cc2n1 [Example B-17, 2,2-dimethyl-3-(5-(2-methyl-4-(phenylcarbamoyl)quinolin-7-yl)pyridin-2-yloxy)propanoic acid]
  IC50: 0.275 µM
